Experimental data taken from ChEMBL document CHEMBL1138598, “Interactions of curcumin with the PfATP6 model and the implications for its antimalarial mechanism” (Bioorg Med Chem Lett, 2009).

Columns and labels:
[1] = Binding affinity to Plasmodium falciparum ATPase6
[2] = Inhibition of Plasmodium falciparum ATPase6 expressed in Xenopus oocytes; format: cell-based; conditions: oocyte
Plasmodium falciparum = assay: Antimalarial activity against chloroquine-resistant Plasmodium falciparum FCK by [3H]hypoxanthine uptake; format: functional, organism-based

| Structure (SMILES) | Kd [1] [nM] | Kd [2] [nM] | IC50 (Plasmodium falciparum) [nM] |
| --- | --- | --- | --- |
| COc1cc(/C=C/C(=O)CC(=O)/C=C/c2ccc(O)c(OC)c2)ccc1O (stereo in doubt; form 1) [CURCUMIN] | 1150 | – | – |
| COc1cc(/C=C/C(=O)CC(=O)/C=C/c2ccc(O)c(OC)c2)ccc1O (stereo in doubt; form 2) [CURCUMIN] | 2450 | – | – |
| C[C@@H]1CC[C@H]2[C@@H](C)C(=O)O[C@@H]3O[C@@]4(C)CC[C@@H]1[C@]32OO4 [ARTEMISININ] | – | 150 | 45 |
| COc1cc(/C=C/C(=O)CC(=O)/C=C/c2ccc(O)c(OC)c2)ccc1O [CURCUMIN] | – | – | 15000 |
